Experimental data: patent US20070213291A1, “Therapeutically useful synthetic oligonucleotides” (priority 1999, published 2007)

Assays:
Type in all cases: cell-based
[1] = system: Jurkat human leukemia T cells; assay: Inhibition of Jurkat human leukemia T cell proliferation (MTT reduction); settings: for % INHIBITION of Jurkat human leukemia T cell proliferation: 100 μg/ml sequence, 48 h, 2.5×10^5 cells/ml
Protocol: Cells were seeded in 6 (1 ml/well), 24 (0.5 ml/well) or 96 (0.1 ml/well) well flat-bottom microplates and were maintained at 37° C. in a 5% CO2 atmosphere. Unless stated otherwise, 2.5×10^5 cells/ml were incubated with 0 μg/ml (control) and 100 μg/ml (treated) of 2 to 45 base sequences containing A, C, G and T for 48 h.
MTT was measured at a wavelength of 570 nm using a multiplate spectrophotometer reader (ELX800, Bio-TEK Instruments Inc., Winooski, Vt.).
Jurkat human leukemia T cells are an atypical multi-drug resistant human suspension tumor cell model.

[2] = system: THP-1 human acute monocytic leukemia cells; assay: Cytokine production by THP-1 cells (ELISA); settings: THP-1, 1×10^6 cells, 100 μg/ml, 48 h; for ↑ IL-12 (fold increase treated vs control cells): p70 complex and free p40
Protocol: (§1) Unless stated otherwise, 1×10^6 cells were incubated with 100 μg/ml of each of the sequences tested for 48 h at 37° C. in 5% CO2. Production of cytokines IL-6, IL-10, IL-12, IL-1beta and TNF-alpha was determined in pg/ml in 100 μl of culture supernatant using the appropriate commercial ELISA (BioSource, Camarillo Calif.). The IL-12 ELISA measures both IL-12 p70 complex and free p40 subunit. Results are expressed as the “fold” (×) increase in cytokine production by treated cells compared to control cells.
THP-1 human acute monocytic leukemia cells were incubated with 2, 3, 6, 9, 12, 14, 15 and 18 base GT sequences and production of the cyotkine IL-6 was determined (Table 35).
THP-1 human acute monocytic leukemia cells were incubated with 6 base GT, AG, CG, GG, AGT and CGT sequences and production of the cytokines IL-12 and IL-6 was determined (Table 36).
THP-1 human acute monocytic leukemia cells were incubated with 6 base GT sequences, having either an oxygen (phosphodiester) or a sulfur (phosphorothioate) as the nonbridging atom on the phosphate groups and production of the cytokine IL-12 was determined (Table 39).
THP-1 human acute monocytic leukemia cells were incubated with 6 base GT SEQ ID NO:25, having either an oxygen (phosphodiester) or a sulfur (phosphorothioate) as the nonbridging atom on the phosphate groups and production of the cytokine IL-12 was determined (Table 40).

[3] = system: Jurkat human leukemia T cells; assay: Cell cycle stage in Jurkat cells (propidium iodide flow cytometry); settings: Jurkat, 24 h, 100 μg/ml
Protocol: Cell cycle stage was determined using a […]™ PLUS DNA commercial kit (Becton Dickinson). Briefly, nuclei from cells were obtained by dissolving the cell membrane in a nonionic detergent, eliminating the cell cytoskeleton and nuclear proteins with trypsin, digesting the cellular RNA with RNase and stabilizing the nuclear chromatin with spermine. Propidium iodide was added to the cell nuclei and their fluorescence was analyzed in a flow cytometer equipped with electronic doublet discrimination capability (FACSCalibur, Becton Dickinson, San Jose, Calif.). Accumulation of cells in G0/G1, early S (SE), mid S (SM), late S (SL) or G2/M phases of the cell cycle was analyzed using MODFIT LT software (Verity Software House Inc., Topsham, Mass.).
Exponentially growing Jurkat human leukemia T cells (Table 28) and MCF-7 human breast cancer cells (5×10^5 cells/ml) (Table 29) were incubated for 24 h with 2, 6, 15, 18, 27 and 45 base sequences containing A, C, G and T. The cells were collected and centrifuged and cell cycle stage was determined.
Jurkat human cell leukemia T cells (1×10^6 cells/ml) were incubated for 24 h with 6 base GT SEQ ID NO:25, conplementary 6 base AC SEQ ID NO:79 and 6 base GT SEQ ID NO:25+6 base AC SEQ ID NO:79. GT SEQ ID NO:25 and AC SEQ ID NO:79 were hybridized by mixing the oligonucleotides (1:1) and heating for 10 minutes at 65° C. As controls, GT SEQ ID NO:25 and AC SEQ ID NO:79 were heated for 10 minutes at 65° C. (Table 30).

[4] = system: human peripheral blood mononuclear cells; assay: Cytokine production by human PBMC (ELISA); settings: PBMC of 7 healthy humans, 100 μg/ml, 48 h
Protocol: as §1
Peripheral blood mononuclear cells (hereinafter, “PBMCs”) were isolated from 7 healthy humans by Ficoll-Hypaque (Amersham Pharmacia Biotech, Baie d'Urfée, Québec, Canada) by density gradient centrifugation of whole blood. PBMCs were incubated with 6 base GT, AGT, CGT, AG, CG and GG sequences and production of the cytokines IL-1beta, IL-6, IL-10 and IL-12 were determined.

Compound | % INHIBITION of Jurkat human leukemia T cell proliferation [1] [%] | ↑ IL-6 (fold increase treated vs control cells) [2] [x] | ↑ IL-12 (fold increase treated vs control cells) [2] [x] | further results
N.N.[Cl][Pt][Cl] [Cisplatin, reference compound] | – | – | – | % INHIBITION of Jurkat proliferation, Cisplatin 0.1 μg/ml ([1]; cisplatin 0.1 μg/ml, alone or with sequence at 1.0 μg/ml): 7%; % INHIBITION of Jurkat proliferation, Cisplatin 1.0 μg/ml ([1]; cisplatin 1.0 μg/ml, alone or with sequence at 1.0 μg/ml): 29%; % INHIBITION of Jurkat proliferation, Cisplatin 10.0 μg/ml ([1]; cisplatin 10.0 μg/ml, alone or with sequence at 1.0 μg/ml): 73%
AAAGAGGGGCATGACCCGGTGCGGGGGTTCTTGCACTCGGCATAG (unmodified DNA) [BCG A-1, reference compound] | 6 | 2.6 | 1.9 | % of cells in phase: G0/G1 [3]: 19.8%; % of cells in phase: G2/M [3]: 12.0%; % of cells in phase: SE [3]: 31.7%; % of cells in phase: SL [3]: 14.0%; % of cells in phase: SM [3]: 22.5%; Arrest (cell cycle) [3]: Mid SM
ACGAGACCACCATCGTCGAGGGCGCCGGTGACACCGACGCCATCG (unmodified DNA) [BCG A-6, reference compound] | 21 | 3.9 | 2.1 | –
ACGCCGACGTCGTCTGTGGTGGGGTGTCTACCGCCAACGCGACGG (unmodified DNA) [BCG M-3, reference compound] | 22 | 2.5 | 1.6 | –
AGGTGA [SEQ ID NO:31] | 10 | 4.9 | 1.9 | % of cells in phase: G0/G1 [3]: 35.2%; % of cells in phase: G2/M [3]: 17.1%; % of cells in phase: SE [3]: 29.1%; % of cells in phase: SL [3]: 8.2%; % of cells in phase: SM [3]: 10.4%; Arrest (cell cycle) [3]: Mid SE
CCGTGG [SEQ ID NO:34] | 37 | 10.8 | 0.0 | –
CGACTACAACGGCTGGGATATCAACACCCCGGCGTTCGAGTGGTA (unmodified DNA) [BCG ALPHA-1, reference compound] | 10 | 2.1 | 1.1 | –
CGGTGC [SEQ ID NO:38] | 16 | 6.9 | 0.2 | –
GAGTGA [SEQ ID NO:32] | 24 | 5.8 | 1.8 | –
GCCGAGAAGGTGCGCAACCTGCCGGCTGGCCACGGACTGAACGCT (unmodified DNA) [BCG A-7, reference compound] | 4 | – | 0.5 | –
GGAGGG (unmodified DNA) [SEQ ID NO:47] | 14 | – | – | –
GGGTCC [SEQ ID NO:35] | 20 | 21.3 | 1.9 | –
GGGTCT [SEQ ID NO:33] | 15 | 3.1 | 1.2 | –
GGGTGGG (unmodified DNA) [SEQ ID NO:63] | 28 | – | – | –
GGGTGGT (unmodified DNA) [SEQ ID NO:65] | 48 | – | – | –
GGGTTT [SEQ ID NO:40] | 31 | 14.0 | −1.2 | –
GGTT (unmodified DNA) [SEQ ID NO:58] | 37 | – | – | –
GTGGGG [SEQ ID NO:48] | 26 | – | – | –
GTGT (unmodified DNA) [SEQ ID NO:54] | 42 | – | – | –

Compound | % INHIBITION of Jurkat human leukemia T cell proliferation [1] [%] | ↑ IL-6 (fold increase treated vs control cells) [2] [x] | ↑ IL-12 (fold increase treated vs control cells) [2] [x] | further results
GTGTGTGTG (chemistry not given here) [SEQ ID NO:12] | 47 | 5.4 | – | –
GTGTGTGTGTGT [SEQ ID NO:14] | 51 | 1.3 | – | IL-1 beta fold increase: mean +/− SD [4]: 1.1 +/− 0.2 fold increase; IL-6 fold increase: mean +/− SD [4]: 2.0 +/− 1.5 fold increase; IL-10 fold increase: mean +/− SD [4]: 1.0 +/− 0.1 fold increase; IL-12 fold increase: mean +/− SD [4]: 2.0 +/− 1.1 fold increase
GTGTGTGTGTGTGTG (unmodified DNA) [SEQ ID NO:16] | 58 | 2.6 | – | –
GTGTGTGTGTGTGTGTGTGTG (unmodified DNA) [SEQ ID NO:20] | 46 | – | – | –
GTGTGTGTGTGTGTGTGTGTGTGT [SEQ ID NO:22] | 56 | – | – | –
GTGTGTGTGTGTGTGTGTGTGTGTGTG (DNA, backbone not given here; further chemistry not fully specified) [SEQ ID NO:1 phosphorothioate] | – | – | – | % of cells in phase: G0/G1 [3]: 33.7%; % of cells in phase: G2/M [3]: 24.5%; % of cells in phase: SE [3]: 17.6%; % of cells in phase: SL [3]: 11.0%; % of cells in phase: SM [3]: 13.2%; Arrest (cell cycle) [3]: None
TCTCTCTCTCTCTCTCTCTCTCTCTCT (unmodified DNA) [SEQ ID NO:6] | 0 | – | – | –
TGGGTGG (unmodified DNA) [SEQ ID NO:64] | 55 | – | – | –
TGTG (unmodified DNA) [SEQ ID NO:59] | 52 | – | – | –
TGTGTGTGT (unmodified DNA) [SEQ ID NO:11] | 45 | 5.4 | – | –
TGTGTGTGTGTGTG (chemistry not given here) [SEQ ID NO:15] | 47 | 1.0 | – | proliferation, cell cycle arrest and apoptosis of Jurkat T cells (summary in words) ([1]; M. phlei murA derived sequences): did not inhibit proliferation of, induce cell cycle arrest in or induce apoptosis of Jurkat T cells
TGTGTGTGTGTGTGTGTGTGT (unmodified DNA) [SEQ ID NO:19] | 60 | – | – | –
TGTGTGTGTGTGTGTGTGTGTGTG [SEQ ID NO:21] | 54 | – | – | –
TGTGTGTGTGTGTGTGTGTGTGTGTG (DNA TGTGTGTGTGTGTGTGTGTGTGTGTGT; unmodified DNA) [SEQ ID NO:5] | 45 | – | – | –
TGTT (unmodified DNA) [SEQ ID NO:57] | 32 | – | – | –
TTGG (unmodified DNA) [SEQ ID NO:55] | 44 | – | – | –
TTGT (unmodified DNA) [SEQ ID NO:53] | 25 | – | – | –
TTGTGG [SEQ ID NO:39] | 35 | 6.6 | 0.0 | % INHIBITION of Jurkat proliferation at suboptimal concentration ([1]; 5.0 μg/ml of each 6 base sequence, alone or two together): 4%
